Assay results from BigSolDB 2.1.

CC(C)Oc1ccc2c(=O)c(-c3ccccc3)coc2c1
solubility (mole fraction)
Details | 278.15 K | 283.15 K | 288.15 K | 293.15 K | 298.15 K | 303.15 K | 308.15 K | 313.15 K | 318.15 K | 323.15 K
in DMAc | 0.0395 | 0.0454 | 0.0534 | 0.062 | 0.0721 | 0.0841 | 0.0981 | 0.113 | 0.133 | 0.152
in DMF | 0.0245 | 0.0301 | 0.0352 | 0.0431 | 0.0506 | 0.0622 | 0.0718 | 0.0884 | 0.103 | 0.126
in acetone | 0.00852 | 0.0102 | 0.0128 | 0.0157 | 0.0193 | 0.0241 | 0.0291 | 0.0363 | 0.0441 | 0.056
in acetonitrile | 0.00246 | 0.00336 | 0.00441 | 0.0056 | 0.00731 | 0.00942 | 0.0122 | 0.0159 | 0.0212 | 0.0282
in dichloromethane | 0.0667 | 0.0735 | 0.0809 | 0.0903 | 0.0988 | 0.108 | 0.119 | – | – | –
in ethanol | 0.000992 | 0.00141 | 0.00187 | 0.00239 | 0.00301 | 0.00409 | 0.00521 | 0.00696 | 0.00872 | 0.012
in methanol | 0.000841 | 0.00109 | 0.0015 | 0.00195 | 0.00244 | 0.0032 | 0.00391 | 0.00505 | 0.00623 | 0.00823
in methyl acetate | 0.00948 | 0.0116 | 0.0142 | 0.0174 | 0.0213 | 0.0264 | 0.0321 | 0.039 | 0.0479 | 0.059
in n-butanol | 0.00166 | 0.00215 | 0.00294 | 0.00375 | 0.00494 | 0.00645 | 0.00842 | 0.0113 | 0.0153 | 0.0195
in n-pentanol | 0.00192 | 0.00239 | 0.00338 | 0.00461 | 0.00597 | 0.0073 | 0.00992 | 0.0125 | 0.0165 | 0.0221
in n-propanol | 0.00135 | 0.00172 | 0.00223 | 0.00307 | 0.00399 | 0.00509 | 0.00671 | 0.00877 | 0.0113 | 0.0147
in toluene | 0.0114 | 0.0143 | 0.0174 | 0.022 | 0.0271 | 0.0338 | 0.0417 | 0.0523 | 0.0638 | 0.0802
